# Sander's compilation of Henry's law constants (doi:10.1016/j.hazl.2022.100070)
# Assay: Henry solubility constant Hcp at 298.15 K (mol/(m3 Pa))
# Details: reference: Abusallout et al. (2022)
row,Henry solubility constant Hcp,SMILES
1,0.00058,"O=C(O)CC(F)(F)C(F)(F)C(F)(F)C(F)(F)C(F)(F)C(F)(F)C(F)(F)C(F)(F)F [2H,2H-perfluorodecanoic acid]"
2,0.0002,"OCCC(F)(F)C(F)(F)C(F)(F)C(F)(F)C(F)(F)C(F)(F)C(F)(F)C(F)(F)F [1H,1H,2H,2H-perfluorodecan-1-ol]"
3,0.0022,"O=S(=O)(O)CCC(F)(F)C(F)(F)C(F)(F)C(F)(F)C(F)(F)C(F)(F)C(F)(F)C(F)(F)F [1H,1H,2H,2H-perfluorodecane sulfonic acid]"
4,0.0045,"O=S(=O)(O)CCC(F)(F)C(F)(F)C(F)(F)C(F)(F)F [1H,1H,2H,2H-perfluorohexane sulfonic acid]"
5,0.0021,"O=S(=O)(O)CCC(F)(F)C(F)(F)C(F)(F)C(F)(F)C(F)(F)C(F)(F)F [1H,1H,2H,2H-perfluorooctane sulfonic acid]"
6,0.00033,"OCCC(F)(F)C(F)(F)C(F)(F)C(F)(F)C(F)(F)C(F)(F)F [1H,1H,2H,2H-perfluoro-1-octanol]"
7,0.00084,"FC(F)(F)C(F)(F)C(F)(F)C(F)(F)C(F)(F)C(F)(F)/C=C/I [1H,2H-perfluoro-1-iodooct-1-ene]"
8,0.0013,"OCCC(F)(F)C(F)(F)C(F)(F)C(F)(F)F [1H,1H,2H,2H-perfluorohexan-1-ol]"

# Further lines, the compound ahead of its results:
row,SMILES,Henry solubility constant Hcp
1,"OCCC(F)(F)C(F)(F)C(F)(F)C(F)(F)C(F)(F)C(F)(F)C(F)(F)C(F)(F)C(F)(F)C(F)(F)F [1,1,2,2-tetrahydroperfluoro dodecanol]",0.00014
2,CCNS(=O)(=O)C(F)(F)C(F)(F)C(F)(F)C(F)(F)C(F)(F)C(F)(F)C(F)(F)C(F)(F)F [N-ethylperfluorooctanesulfonamide],0.00094
3,"FC(F)(F)C(F)(F)C(F)(F)C(F)(F)C(F)(F)C(F)(F)CCI [1,1,1,2,2,3,3,4,4,5,5,6,6-tridecafluoro-8-iodooctane]",0.0013
4,C=CC(F)(F)C(F)(F)C(F)(F)C(F)(F)C(F)(F)C(F)(F)F [(perfluorohexyl)ethene],0.00011
5,C=CC(=O)OCCC(F)(F)C(F)(F)C(F)(F)C(F)(F)C(F)(F)C(F)(F)C(F)(F)C(F)(F)F,0.0013
6,FC(F)(F)C(F)(F)C(F)(F)C(F)(F)C(F)(F)C(F)(F)I [perfluorohexyl iodide],0.00046
7,CNS(=O)(=O)C(F)(F)C(F)(F)C(F)(F)C(F)(F)C(F)(F)C(F)(F)C(F)(F)C(F)(F)F [N-methylperfluorooctanesulphonamide],0.00044
